# Assay results taken from PubChem BioAssay AID1963967 (Molecular Pharmacology Branch, DTP, NCI, 2024).
# Test system: 855422-203-R-J1-PDC spheroids with HUVEC/MSC, viability
# Assay: Anticancer human tumor 855422-203-R-J1-PDC patient-derived bladder carcinoma cell line growth inhibition [PI3K]
# Conditions: for IC50: curve of first compound; for viability, T/C: stronger effect = lower value
# Outline: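 Stroma-containing spheroids: tumor line, pooled-donor HUVEC, hMSC. Treatments: targeted agents with PI3K inhibitors. Dosing: clinically relevant, half-log spacing, 10 microM ceiling without known Cmax. Read-out: cell viability.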
# [1] = second compound 0.0316 µM, first compound 0.0316 µM
# [2] = second compound 0.0316 µM, first compound 0.1 µM
# [3] = second compound 0.0316 µM, first compound 0.316 µM
# [4] = second compound 0.0316 µM, first compound 1 µM
# [5] = second compound 0.0316 µM, first compound 3.16 µM
# [6] = second compound 0.0316 µM, first compound 10 µM
# [7] = second compound 0.1 µM, first compound 0.0316 µM
# [8] = second compound 0.1 µM, first compound 0.1 µM
# [9] = second compound 0.1 µM, first compound 0.316 µM
# [10] = second compound 0.1 µM, first compound 1 µM
# [11] = second compound 0.1 µM, first compound 3.16 µM
# [12] = second compound 0.1 µM, first compound 10 µM
# [13] = second compound 0.316 µM, first compound 0.0316 µM
# [14] = second compound 0.316 µM, first compound 0.1 µM
# [15] = second compound 0.316 µM, first compound 0.316 µM
# [16] = second compound 0.316 µM, first compound 1 µM
# [17] = second compound 0.316 µM, first compound 3.16 µM
# [18] = second compound 0.316 µM, first compound 10 µM
# [19] = second compound 1 µM, first compound 0.0316 µM
# [20] = second compound 1 µM, first compound 0.1 µM
# [21] = second compound 1 µM, first compound 0.316 µM
# [22] = second compound 1 µM, first compound 1 µM
# [23] = second compound 1 µM, first compound 3.16 µM
# [24] = second compound 1 µM, first compound 10 µM
# [25] = second compound 3.16 µM, first compound 0.0316 µM
# [26] = second compound 3.16 µM, first compound 0.1 µM
# [27] = second compound 3.16 µM, first compound 0.316 µM
# [28] = second compound 3.16 µM, first compound 1 µM
# [29] = second compound 3.16 µM, first compound 3.16 µM
# [30] = second compound 3.16 µM, first compound 10 µM
# [31] = second compound 10 µM, first compound 0.0316 µM
# [32] = second compound 10 µM, first compound 0.1 µM
# [33] = second compound 10 µM, first compound 0.316 µM
# [34] = second compound 10 µM, first compound 1 µM
# [35] = second compound 10 µM, first compound 3.16 µM
# [36] = second compound 10 µM, first compound 10 µM
# 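Further: agents incubated with spheroids for one week before read-out.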
# 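Wherever viability, T/C is given: 100% = DMSO vehicle-treated control wells.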
smiles,measurement,setting,value
CC(C)NCC(C(=O)N1CCN(c2ncnc3c2C(C)CC3O)CC1)c1ccc(Cl)cc1 (stereo not drawn) + CC(Nc1ncnc2nc[nH]c12)c1cc2cccc(Cl)c2c(=O)n1-c1ccccc1,IC50,second compound 0.0316 µM,1160 nM
same,IC50,second compound 0.1 µM,1120 nM
same,IC50,second compound 0.316 µM,1130 nM
same,IC50,second compound 1 µM,1130 nM
same,IC50,second compound 3.16 µM,1280 nM
same,IC50,second compound 10 µM,937 nM
same,"viability, T/C",[1],114%
same,"viability, T/C",[2],83.2%
same,"viability, T/C",[3],83.9%
same,"viability, T/C",[4],46.1%
same,"viability, T/C",[5],34.5%
same,"viability, T/C",[6],16.8%
same,"viability, T/C",[7],103%
same,"viability, T/C",[8],88.2%
same,"viability, T/C",[9],70%
same,"viability, T/C",[10],51.4%
same,"viability, T/C",[11],34.9%
same,"viability, T/C",[12],19%
same,"viability, T/C",[13],101%
same,"viability, T/C",[14],90.4%
same,"viability, T/C",[15],75.5%
same,"viability, T/C",[16],51.7%
same,"viability, T/C",[17],31.9%
same,"viability, T/C",[18],18.8%
same,"viability, T/C",[19],88.6%
same,"viability, T/C",[20],93%
same,"viability, T/C",[21],81.3%
same,"viability, T/C",[22],50.1%
same,"viability, T/C",[23],32.8%
same,"viability, T/C",[24],19.5%
same,"viability, T/C",[25],88.4%
same,"viability, T/C",[26],81.8%
same,"viability, T/C",[27],73.1%
same,"viability, T/C",[28],47.6%
same,"viability, T/C",[29],40%
same,"viability, T/C",[30],16.3%
same,"viability, T/C",[31],85.3%
same,"viability, T/C",[32],81.9%
same,"viability, T/C",[33],69.8%
same,"viability, T/C",[34],47.1%
same,"viability, T/C",[35],30.1%
same,"viability, T/C",[36],15.2%
CCN1CCN(Cc2ccc(Nc3ncc(F)c(-c4cc(F)c5nc(C)n(C(C)C)c5c4)n3)nc2)CC1 + CC(Nc1ncnc2nc[nH]c12)c1cc2cccc(Cl)c2c(=O)n1-c1ccccc1,IC50,second compound 0.0316 µM,> 1000 nM
same,IC50,second compound 0.1 µM,> 1000 nM
same,IC50,second compound 0.316 µM,> 1000 nM
same,IC50,second compound 1 µM,885 nM
same,IC50,second compound 3.16 µM,497 nM
same,IC50,second compound 10 µM,63 nM
same,"viability, T/C","second compound 0.0316 µM, first compound 0.00316 µM",113%
same,"viability, T/C","second compound 0.0316 µM, first compound 0.01 µM",93.7%
same,"viability, T/C",[1],108%
same,"viability, T/C",[2],88.6%
same,"viability, T/C",[3],76.5%
same,"viability, T/C",[4],62.2%
same,"viability, T/C","second compound 0.1 µM, first compound 0.00316 µM",108%
same,"viability, T/C","second compound 0.1 µM, first compound 0.01 µM",97.8%
same,"viability, T/C",[7],108%
same,"viability, T/C",[8],86.5%
same,"viability, T/C",[9],83.1%
same,"viability, T/C",[10],62%
same,"viability, T/C","second compound 0.316 µM, first compound 0.00316 µM",95.2%
same,"viability, T/C","second compound 0.316 µM, first compound 0.01 µM",112%
same,"viability, T/C",[13],109%
same,"viability, T/C",[14],94.4%
same,"viability, T/C",[15],68.2%
same,"viability, T/C",[16],53.7%
same,"viability, T/C","second compound 1 µM, first compound 0.00316 µM",97.5%
same,"viability, T/C","second compound 1 µM, first compound 0.01 µM",104%
same,"viability, T/C",[19],105%
same,"viability, T/C",[20],83.1%
same,"viability, T/C",[21],69%
same,"viability, T/C",[22],47.3%
same,"viability, T/C","second compound 3.16 µM, first compound 0.00316 µM",98.2%
same,"viability, T/C","second compound 3.16 µM, first compound 0.01 µM",96.6%
same,"viability, T/C",[25],89.8%
same,"viability, T/C",[26],75.7%
same,"viability, T/C",[27],51.5%
same,"viability, T/C",[28],46.2%
same,"viability, T/C","second compound 10 µM, first compound 0.00316 µM",81.9%
same,"viability, T/C","second compound 10 µM, first compound 0.01 µM",83.2%
same,"viability, T/C",[31],55.2%
same,"viability, T/C",[32],44.9%
same,"viability, T/C",[33],34.9%
same,"viability, T/C",[34],25.9%
Cn1ncc(Cl)c1-c1cc(C(=O)NC(CN)Cc2cccc(F)c2)sc1Cl (stereo not drawn) + CC(Nc1ncnc2nc[nH]c12)c1cc2cccc(Cl)c2c(=O)n1-c1ccccc1,IC50,second compound 0.0316 µM,572 nM
same,IC50,second compound 0.1 µM,706 nM
same,IC50,second compound 0.316 µM,634 nM
same,IC50,second compound 1 µM,695 nM
same,IC50,second compound 3.16 µM,454 nM
same,IC50,second compound 10 µM,411 nM
same,"viability, T/C",[1],98.1%
same,"viability, T/C",[2],78.2%
same,"viability, T/C",[3],58%
same,"viability, T/C",[4],41.9%
same,"viability, T/C",[5],25.4%
same,"viability, T/C",[6],9.19%
same,"viability, T/C",[7],95.2%
same,"viability, T/C",[8],84.5%
same,"viability, T/C",[9],59.3%
same,"viability, T/C",[10],46.4%
same,"viability, T/C",[11],25.1%
same,"viability, T/C",[12],8.79%
same,"viability, T/C",[13],92.2%
same,"viability, T/C",[14],74.7%
same,"viability, T/C",[15],55.5%
same,"viability, T/C",[16],48.3%
same,"viability, T/C",[17],25.9%
same,"viability, T/C",[18],6.18%
same,"viability, T/C",[19],79.8%
same,"viability, T/C",[20],75.4%
same,"viability, T/C",[21],62.1%
same,"viability, T/C",[22],45%
same,"viability, T/C",[23],22.5%
same,"viability, T/C",[24],10%
same,"viability, T/C",[25],87.5%
same,"viability, T/C",[26],75.3%
same,"viability, T/C",[27],52.4%
same,"viability, T/C",[28],39.5%
same,"viability, T/C",[29],21.9%
same,"viability, T/C",[30],8.05%
same,"viability, T/C",[31],83.4%
same,"viability, T/C",[32],71.8%
same,"viability, T/C",[33],52.5%
same,"viability, T/C",[34],36.9%
same,"viability, T/C",[35],20.1%
same,"viability, T/C",[36],5.58%
Cn1nccc1Nc1nccc(-c2ccn(C(CO)c3ccc(Cl)c(F)c3)c(=O)c2)n1 (stereo not drawn) + CC(Nc1ncnc2nc[nH]c12)c1cc2cccc(Cl)c2c(=O)n1-c1ccccc1,IC50,second compound 0.0316 µM,8700 nM
same,IC50,second compound 0.1 µM,9940 nM
same,IC50,second compound 0.316 µM,8440 nM
same,IC50,second compound 1 µM,9000 nM
same,IC50,second compound 3.16 µM,7460 nM
same,IC50,second compound 10 µM,4010 nM
same,"viability, T/C",[1],113%
same,"viability, T/C",[2],94.6%
same,"viability, T/C",[3],116%
same,"viability, T/C",[4],98.2%
same,"viability, T/C",[5],91%
same,"viability, T/C",[6],44.3%
same,"viability, T/C",[7],107%
same,"viability, T/C",[8],98.9%
same,"viability, T/C",[9],109%
same,"viability, T/C",[10],101%
same,"viability, T/C",[11],92.7%
same,"viability, T/C",[12],49.5%
same,"viability, T/C",[13],111%
same,"viability, T/C",[14],98.7%
same,"viability, T/C",[15],105%
same,"viability, T/C",[16],106%
same,"viability, T/C",[17],90%
same,"viability, T/C",[18],43.5%
same,"viability, T/C",[19],107%
same,"viability, T/C",[20],112%
same,"viability, T/C",[21],107%
same,"viability, T/C",[22],103%
same,"viability, T/C",[23],88.1%
same,"viability, T/C",[24],45.7%
same,"viability, T/C",[25],100%
same,"viability, T/C",[26],107%
same,"viability, T/C",[27],107%
same,"viability, T/C",[28],103%
same,"viability, T/C",[29],84.4%
same,"viability, T/C",[30],38.2%
same,"viability, T/C",[31],88.5%
same,"viability, T/C",[32],81.3%
same,"viability, T/C",[33],87.4%
same,"viability, T/C",[34],80%
same,"viability, T/C",[35],56.5%
same,"viability, T/C",[36],25.1%
